Results reported in ChEMBL document CHEMBL4311960, “Two optimized antimicrobial peptides with therapeutic potential for clinical antibiotic-resistant Staphylococcus aureus” (Eur J Med Chem, 2019).
The source made the active and inactive calls. No cut-off for these calls is given here.

Assays:
Staphylococcus aureus [1] = assay: Inhibition of biofilm formation in methicillin-resistant Staphylococcus aureus ATCC 19498 at MIC incubated for 24 hrs by scanning electron microscopy; assay type: functional, organism-based
Staphylococcus aureus [2] = assay: Antibacterial activity against Staphylococcus aureus ATCC 25923 assessed as reduction in bacterial growth incubated for 24 hrs by serial dilution method; assay type: functional; settings: ATCC 25923, 24 h, read-out: MIC
Staphylococcus aureus [3] = assay: Inhibition of biofilm formation in Staphylococcus aureus ATCC 29213 at MIC incubated for 24 hrs by scanning electron microscopy; assay type: functional, organism-based
Staphylococcus aureus [4] = assay: Disruption of membrane integrity in Staphylococcus aureus ATCC 29213 assessed as cell membrane damage at MIC incubated for 24 hrs by scanning electron microscopy; assay type: functional, organism-based
Staphylococcus aureus [5] = assay: Disruption of membrane integrity in Staphylococcus aureus ATCC 25923 assessed as shrinking of cell membrane at MIC incubated for 24 hrs by scanning electron microscopy; assay type: functional, organism-based
Staphylococcus aureus [6] = assay: Inhibition of biofilm formation in methicillin-resistant Staphylococcus aureus ATCC 18466 assessed as downregulation of hld gene at MIC incubated for 1 hr by qRT-PCR; assay type: functional, organism-based
Staphylococcus aureus [7] = assay: Inhibition of biofilm formation in Staphylococcus aureus ATCC 25923 assessed as downregulation of spa gene at MIC incubated for 1 hr by qRT-PCR; assay type: functional, organism-based
Staphylococcus aureus [8] = assay: Antibacterial activity against Staphylococcus aureus ATCC 25923 assessed as reduction in bacterial growth at MIC measured after 15 passages; assay type: functional
Staphylococcus aureus [9] = assay: Inhibition of biofilm formation in Staphylococcus aureus ATCC 29213 assessed as downregulation of mecA gene at MIC incubated for 1 hr by qRT-PCR; assay type: functional, organism-based
Staphylococcus aureus [10] = assay: Disruption of membrane integrity in methicillin-resistant Staphylococcus aureus ATCC 19498 assessed as extravasation of cytoplasmic content at MIC incubated for 24 hrs by scanning electron microscopy; assay type: functional, organism-based
Staphylococcus aureus [11] = assay: Inhibition of biofilm formation in Staphylococcus aureus ATCC 29213 assessed as downregulation of hld gene at MIC incubated for 1 hr by qRT-PCR; assay type: functional, organism-based
Staphylococcus aureus [12] = assay: Inhibition of biofilm formation in methicillin-resistant Staphylococcus aureus ATCC 19498 assessed as downregulation of hld gene at MIC incubated for 1 hr by qRT-PCR; assay type: functional, organism-based
Staphylococcus aureus [13] = assay: Disruption of membrane integrity in methicillin-resistant Staphylococcus aureus ATCC 19498 assessed as cell membrane damage at MIC incubated for 24 hrs by scanning electron microscopy; assay type: functional, organism-based
[14] = Cytotoxicity against human HEK293T cells assessed as cell viability at 5 to 640 ug/ml incubated for 48 hrs by MTT assay relative to control; assay type: cell-based, HEK-293T; settings: read-out: Activity
Staphylococcus aureus [15] = assay: Disruption of membrane integrity in methicillin-resistant Staphylococcus aureus ATCC 19498 assessed as invagination of cell membrane at MIC incubated for 24 hrs by scanning electron microscopy; assay type: functional, organism-based
Streptococcus mutans = assay: Antibacterial activity against Streptococcus mutans UA159 assessed as reduction in bacterial growth incubated for 24 hrs by serial dilution method; assay type: functional; settings: UA159, 24 h, read-out: MIC
Staphylococcus aureus [16] = assay: Inhibition of biofilm formation in methicillin-resistant Staphylococcus aureus ATCC 19498 assessed as downregulation of […] gene at MIC incubated for 1 hr by qRT-PCR; assay type: functional, organism-based
Staphylococcus aureus [17] = assay: Disruption of membrane integrity in methicillin-resistant Staphylococcus aureus ATCC 19498 assessed as decrease in cell volume at MIC incubated for 24 hrs by scanning electron microscopy; assay type: functional, organism-based
Staphylococcus aureus [18] = assay: Disruption of membrane integrity in Staphylococcus aureus ATCC 25923 assessed as invagination of cell membrane at MIC incubated for 24 hrs by scanning electron microscopy; assay type: functional, organism-based
Staphylococcus aureus [19] = assay: Disruption of membrane integrity in methicillin-resistant Staphylococcus aureus ATCC 18466 assessed as decrease in cell volume at MIC incubated for 24 hrs by scanning electron microscopy; assay type: functional, organism-based
Staphylococcus aureus [20] = assay: Inhibition of biofilm formation in methicillin-resistant Staphylococcus aureus ATCC 18466 assessed as downregulation of spa gene at MIC incubated for 1 hr by qRT-PCR; assay type: functional, organism-based
Staphylococcus aureus [21] = assay: Antibacterial activity against methicillin-resistant Staphylococcus aureus ATCC 18466 assessed as reduction in bacterial growth incubated for 24 hrs by serial dilution method; assay type: functional; settings: ATCC 18466, 24 h, read-out: MIC
Staphylococcus aureus [22] = assay: Inhibition of biofilm formation in methicillin-resistant Staphylococcus aureus ATCC 18466 assessed as downregulation of mecA gene at MIC incubated for 1 hr by qRT-PCR; assay type: functional, organism-based
Staphylococcus aureus [23] = assay: Disruption of membrane integrity in Staphylococcus aureus ATCC 25923 assessed as cell membrane damage at MIC incubated for 24 hrs by scanning electron microscopy; assay type: functional, organism-based
Staphylococcus aureus [24] = assay: Inhibition of biofilm formation in methicillin-resistant Staphylococcus aureus ATCC 19498 assessed as downregulation of spa gene at MIC incubated for 1 hr by qRT-PCR; assay type: functional, organism-based
Staphylococcus aureus [25] = assay: Inhibition of biofilm formation in Staphylococcus aureus ATCC 25923 at MIC incubated for 24 hrs by scanning electron microscopy; assay type: functional, organism-based
Staphylococcus aureus [26] = assay: Inhibition of biofilm formation in methicillin-resistant Staphylococcus aureus ATCC 19498 assessed as downregulation of mecA gene at MIC incubated for 1 hr by qRT-PCR; assay type: functional, organism-based
Staphylococcus aureus [27] = assay: Disruption of membrane integrity in methicillin-resistant Staphylococcus aureus ATCC 19498 assessed as shrinking of cell membrane at MIC incubated for 24 hrs by scanning electron microscopy; assay type: functional, organism-based
Staphylococcus aureus [28] = assay: Disruption of membrane integrity in methicillin-resistant Staphylococcus aureus ATCC 18466 assessed as shrinking of cell membrane at MIC incubated for 24 hrs by scanning electron microscopy; assay type: functional, organism-based
Staphylococcus aureus [29] = assay: Disruption of membrane integrity in Staphylococcus aureus ATCC 29213 assessed as extravasation of cytoplasmic content at MIC incubated for 24 hrs by scanning electron microscopy; assay type: functional, organism-based
Erythrocyte = assay: Hemolytic activity in mouse Erythrocyte assessed as HC10 incubated for 1 hr; assay type: ADME, cell-based
[30] = Stability in MRSA supernatant at 20 uM incubated for 24 hrs by HPLC-MS analysis; assay type: physicochemical
Staphylococcus aureus [31] = assay: Inhibition of biofilm formation in Staphylococcus aureus ATCC 29213 assessed as downregulation of spa gene at MIC incubated for 1 hr by qRT-PCR; assay type: functional, organism-based
Staphylococcus aureus [32] = assay: Disruption of membrane integrity in methicillin-resistant Staphylococcus aureus ATCC 19498 assessed as perforation of cell membrane at MIC incubated for 24 hrs by scanning electron microscopy; assay type: functional, organism-based
Staphylococcus aureus [33] = assay: Disruption of membrane integrity in Staphylococcus aureus ATCC 25923 assessed as perforation of cell membrane at MIC incubated for 24 hrs by scanning electron microscopy; assay type: functional, organism-based
Staphylococcus aureus [34] = assay: Disruption of membrane integrity in Staphylococcus aureus ATCC 29213 assessed as shrinking of cell membrane at MIC incubated for 24 hrs by scanning electron microscopy; assay type: functional, organism-based
Staphylococcus aureus [35] = assay: Disruption of membrane integrity in Staphylococcus aureus ATCC 25923 assessed as extravasation of cytoplasmic content at MIC incubated for 24 hrs by scanning electron microscopy; assay type: functional, organism-based
Staphylococcus aureus [36] = assay: Inhibition of biofilm formation in Staphylococcus aureus ATCC 25923 assessed as downregulation of mecA gene at MIC incubated for 1 hr by qRT-PCR; assay type: functional, organism-based

Substance: H-SYERKINRHFKTLKKNLKKK-NH2
- inhibition (Staphylococcus aureus [1]): Active
- MIC (Staphylococcus aureus [2]): 32 µg/mL
- inhibition (Staphylococcus aureus [3]): Active
- Activity (Staphylococcus aureus [4]): Active
- Activity (Staphylococcus aureus [5]): Active
- inhibition (Staphylococcus aureus [6]): Active
- inhibition (Staphylococcus aureus [7]): Active
- Activity (Staphylococcus aureus [8]): Active
- inhibition (Staphylococcus aureus [9]): inactive
- Activity (Staphylococcus aureus [10]): Active
- inhibition (Staphylococcus aureus [11]): Active
- inhibition (Staphylococcus aureus [12]): Active
- Activity (Staphylococcus aureus [13]): Active
- viability at 48 h [14]: 70 to 80%
- Activity (Staphylococcus aureus [15]): Active
- MIC (Streptococcus mutans): < 64 µg/mL
- inhibition (Staphylococcus aureus [16]): Active
- Activity (Staphylococcus aureus [17]): Active
- Activity (Staphylococcus aureus [18]): Active
- Activity (Staphylococcus aureus [19]): Active
- inhibition (Staphylococcus aureus [20]): Active
- MIC (Staphylococcus aureus [21]): 16 µg/mL
- inhibition (Staphylococcus aureus [22]): inactive
- Activity (Staphylococcus aureus [23]): Active
- inhibition (Staphylococcus aureus [24]): Active
- inhibition (Staphylococcus aureus [25]): Active
- inhibition (Staphylococcus aureus [26]): inactive
- Activity (Staphylococcus aureus [27]): Active
- Activity (Staphylococcus aureus [28]): Active
- Activity (Staphylococcus aureus [29]): Active
- HC10 (Erythrocyte): > 640 µg/mL
- Stability [30]: Stable
- inhibition (Staphylococcus aureus [31]): Active
- Activity (Staphylococcus aureus [32]): Active
- Activity (Staphylococcus aureus [33]): Active
- Activity (Staphylococcus aureus [34]): Active
- Activity (Staphylococcus aureus [35]): Active
- inhibition (Staphylococcus aureus [36]): inactive

Substance: H-YIRKIRRFFKKLKKILKK-NH2
- inhibition (Staphylococcus aureus [1]): Active
- MIC (Staphylococcus aureus [2]): 8 µg/mL
- inhibition (Staphylococcus aureus [3]): Active
- Activity (Staphylococcus aureus [4]): Active
- Activity (Staphylococcus aureus [5]): Active
- inhibition (Staphylococcus aureus [6]): Active
- inhibition (Staphylococcus aureus [7]): Active
- Activity (Staphylococcus aureus [8]): Active
- inhibition (Staphylococcus aureus [9]): inactive
- Activity (Staphylococcus aureus [10]): Active
- inhibition (Staphylococcus aureus [11]): Active
- inhibition (Staphylococcus aureus [12]): Active
- Activity (Staphylococcus aureus [13]): Active
- viability at 48 h [14]: 70 to 80%
- Activity (Staphylococcus aureus [15]): Active
- MIC (Streptococcus mutans): 64 µg/mL
- inhibition (Staphylococcus aureus [16]): Active
- Activity (Staphylococcus aureus [17]): Active
- Activity (Staphylococcus aureus [18]): Active
- Activity (Staphylococcus aureus [19]): Active
- inhibition (Staphylococcus aureus [20]): Active
- MIC (Staphylococcus aureus [21]): 8 µg/mL
- inhibition (Staphylococcus aureus [22]): inactive
- Activity (Staphylococcus aureus [23]): Active
- inhibition (Staphylococcus aureus [24]): Active
- inhibition (Staphylococcus aureus [25]): Active
- inhibition (Staphylococcus aureus [26]): inactive
- Activity (Staphylococcus aureus [27]): Active
- Activity (Staphylococcus aureus [28]): Active
- Activity (Staphylococcus aureus [29]): Active
- HC10 (Erythrocyte): 640 µg/mL
- Stability [30]: Stable
- inhibition (Staphylococcus aureus [31]): Active
- Activity (Staphylococcus aureus [32]): Active
- Activity (Staphylococcus aureus [33]): Active
- Activity (Staphylococcus aureus [34]): Active
- Activity (Staphylococcus aureus [35]): Active
- inhibition (Staphylococcus aureus [36]): inactive
